Biological target: Histone-lysine N-methyltransferase ASH1L (Homo sapiens, UniProt Q9NR48)
Test: Inhibition of MOCR-fused ASH1L SET-BAH ( 2069 to 2833 amino acids) (unknown origin) expressed as in Escherichia coli BL21 (DE3) T1R cells using SAM and chicken mono/dinucleosomes incubated for 1 hr by scintillation counting assay

SMILES	IC50
CS(=O)(=O)N1CCC(n2cc(-c3cccc(C(N)=S)c3)c3cc(F)ccc32)CC1	20 to 100 µM
CN1c2ccccc2CCc2ccc(C(N)=S)cc21	> 100 µM
NC(=S)c1cccc(-c2cccc3[nH]ccc23)c1	20 to 100 µM
NC(=S)c1cccc(-c2cn(CCCC(F)(F)F)c3cc(CNCc4c[nH]cn4)ccc23)c1	< 20 µM
NC(=S)c1cccc(-c2cn(CC(=O)C(F)(F)F)c3cc(CO)ccc23)c1	< 20 µM
NC(=S)c1cccc(-c2cn(CC(CF)C(F)F)c3cc(N)ccc23)c1 (stereo not given)	< 20 µM
NC(=S)c1cc(-c2ccc(O)cc2)ccn1	> 100 µM
CC(=O)NCc1ccc2c(-c3cccc(C(N)=S)c3)c[nH]c2c1	20 to 100 µM
NC(=S)c1cccc(-c2cn(CCCC(F)(F)F)c3ccc(N)cc23)c1	20 to 100 µM
NC(=S)c1ccc(-c2ccccc2)s1	> 100 µM
Nc1ccc2c(-c3ccc4ccnc(N)c4c3)cn(CCC(F)F)c2c1	< 20 µM
CNc1ccc(-c2cccc3[nH]ccc23)cc1C(N)=S	> 100 µM
CCCOc1nnc(NCc2ccc3c(-c4cccc(C(N)=S)c4)cn(C4CCN(S(C)(=O)=O)CC4)c3c2)s1	< 20 µM
NCc1ccc2c(c1)c(CC(CF)CF)cn2-c1cccc(C(N)=S)c1	< 20 µM
NC(=S)c1cc(-c2cn(CCC(F)F)c3cc(CO)ccc23)c2cc[nH]c2c1	< 20 µM
CSCCn1cc(-c2cccc(C(N)=S)c2)c2ccccc21	> 100 µM
NC(=S)c1cccc(-c2c[nH]c3cc(CNC=O)ccc23)c1	20 to 100 µM
NC(=S)c1ccc(-c2cn(CCC(F)F)c3cc(CO)ccc23)[nH]1	< 20 µM
NC(=S)c1cccc(-c2cn(CCCC(F)(F)F)c3cc(CNC(=O)c4ccccc4)ccc23)c1	< 20 µM
NC(=S)c1cccc(-c2cn(CCC(F)F)c3cc(CO)c(F)cc23)c1	< 20 µM
NC(=S)c1cccc(-c2c[nH]c3cccnc23)c1	> 100 µM
NCc1ccc2c(-c3cccc(C(N)=S)c3)c[nH]c2c1	36 µM
N#Cc1cccc(-c2cn(CC(CO)C(F)F)c3cc(N)ccc23)c1 (stereo not given)	< 20 µM
NC(=S)c1cccc(-c2cn(C3CCN(S(=O)(=O)CCNC(=O)COc4cccc5c4C(=O)N(C4CCC(=O)NC4=O)C5=O)CC3)c3cc(CNc4nnc(N)s4)ccc23)c1 (stereo not given)	< 20 µM
NC(=S)c1cc(-c2cn(CCC(F)F)c3cc(CO)ccc23)c[nH]1	< 20 µM
NC(=S)c1cc(-c2cccc3[nH]ccc23)ccc1O	> 100 µM
NC(=S)c1cccc(-c2ccc(OCCOCCNC(=O)CCCCCNC(=O)c3ccc4c(c3)C(=O)OC43c4ccc(O)cc4Oc4cc(O)ccc43)c3[nH]ccc23)c1	> 100 µM

SMILES	IC50
NC(=S)c1cccc(-c2cn(CC3OCCO3)c3cc(N)ccc23)c1	20 to 100 µM
CC(C)(C)OC(=O)Nc1nc(CC(=O)NCc2ccc3c(-c4cccc(C(N)=S)c4)cn(CCCC(F)(F)F)c3c2)cs1	< 20 µM
NC(=O)c1ccc2c(-c3cccc(C(N)=S)c3)c[nH]c2c1	> 100 µM
NC(=S)c1cccc(-c2cc(C(F)(F)F)cc3c2ccn3CCO)c1	20 to 100 µM
Cc1c(O)ccc(-c2cncc(C(N)=S)c2)c1C	> 100 µM
NC(=S)c1ccc2cc[nH]c2c1	> 100 µM
NC(=S)c1cccc(-c2cn(Cc3cnc[nH]3)c3cc(CO)ccc23)c1	< 20 µM
NC(=S)c1ccnc(-c2cn(CC(CF)CF)c3cc(CO)ccc23)c1	< 20 µM
CCCS(=O)(=O)N1CCC(n2cc(-c3cccc(C(N)=S)c3)c3ccc(N)cc32)CC1	< 20 µM
Cc1cc2c(-c3cccc(C(N)=S)c3)cccc2n1C	> 100 µM
NC(=S)c1cccc(-c2cn(C3CCCCC3O)c3cc(CO)ccc23)c1 (stereo not given)	< 20 µM
O=C1NCc2c1cccc2-c1ccc(O)cc1	> 100 µM
NC(=S)c1cccc(-c2cn(CC(O)(CC(F)(F)F)CC(F)(F)F)c3cc(N)ccc23)c1	< 20 µM
NC(=S)c1cccc(-c2cn(CCCC(F)(F)F)c3cc(CNC(=O)CCc4c[nH]cn4)ccc23)c1	< 20 µM
NC(=S)c1cccc(-c2ccc(CCC(F)F)c3[nH]c(CO)cc23)c1	< 20 µM
NC(=S)c1cccc(-c2cn(CC(CCF)CC(F)F)c3cc(N)ccc23)c1 (stereo not given)	< 20 µM
NC(=S)c1cccc(-c2cn(CC(CF)CF)c3cc(CO)ccc23)c1	< 20 µM
NC(=S)c1cccc(-c2cn(CCCC(F)(F)F)c3cc(CNC(=O)c4c[nH]cn4)ccc23)c1	< 20 µM
NC(=S)c1ccnc(-n2cccc2)c1	> 100 µM
NC(=S)c1cccc(-n2cc(CC(CF)CF)c3cc(CO)ccc32)c1	< 20 µM
NC(=S)c1cccc(-c2cn(CC3CC(O)C(O)C3)c3cc(CO)ccc23)c1 (stereo not given)	< 20 µM
NC(=S)c1cccc(-c2cn(CC(CO)(C(F)F)C(F)F)c3cc(C(O)CCF)ccc23)c1 (stereo not given)	< 20 µM
NC(=S)c1cccc(-c2cc(CC(CF)CF)c3cc[nH]c3c2)c1	< 20 µM
CN(C)CCNc1ccc2c(-c3cccc(C(N)=S)c3)cn(CCCC(F)(F)F)c2c1	> 100 µM
NC(=S)c1cccc(-c2cn(CC(F)(F)F)c3cc(NCC(F)(F)F)ccc23)c1	< 20 µM
NC(=S)c1cc(-c2cn(CCC(F)F)c3cc(CO)ccc23)c2[nH]cnc2c1	< 20 µM
NC(=S)c1cccc(-c2cn(CCO)c3cc(N)ccc23)c1	20 to 100 µM

SMILES	IC50
CC(O)c1ccc2c(-c3cccc(C(N)=S)c3)cn(CC(CF)CF)c2c1 (stereo not given)	< 20 µM
NC(=S)c1cccc(-c2cn(CC(CF)CF)c3cc(CF)ccc23)c1	< 20 µM
CS(=O)(=O)N1CCC(n2cc(-c3cccc(C(N)=S)c3)c3ccc(CNC(=O)Cc4cc(NCC5CCCCC5)c[nH]4)cc32)CC1	< 20 µM
NC(=S)c1cc(-c2cn(CC(CF)CF)c3cc(CO)ccc23)ccn1	< 20 µM
CS(=O)(=O)N1CCC(n2cc(-c3cccc(C(N)=S)c3)c3ccc(CNC(=O)CC4CCNC4)cc32)CC1 (stereo not given)	< 20 µM
NC(=S)c1cccc(-n2cc(CC(CF)CF)c3cc(N)ccc32)c1	< 20 µM
NC(=S)c1cccc(-c2cccc3c2ccn3CCO)c1	> 100 µM
NC(=S)c1cccc(-c2ccc(O)c3c2CCC3O)c1 (stereo not given)	> 100 µM
NC(=S)c1cccc(-c2cn(CC(O)CO)c3cc(N)ccc23)c1 (stereo not given)	< 20 µM
OCc1ccc2c(-c3cccc4c3CNC4=S)cn(CCC(F)F)c2c1	< 20 µM
CS(=O)(=O)N1CCC(n2cc(-c3cccc(C(N)=S)c3)c3ccc(CNC(=O)Cc4cc5ccccc5[nH]4)cc32)CC1	< 20 µM
COc1c(C(N)=S)cccc1-c1ccc(O)cc1	> 100 µM
CC(O)COC(C)Cn1cc(-c2cccc(C(N)=S)c2)c2ccccc21 (stereo not given)	20 to 100 µM
CCn1ccc2c(-c3cccc(C(N)=S)c3)cccc21	> 100 µM
NC(=S)c1cccc(-c2cn(C3CCOCC3)c3cc(CNc4nnc(N)s4)ccc23)c1	< 20 µM
NC(=S)c1cccc(-c2cn(Cc3ccc[nH]3)c3cc(CO)ccc23)c1	< 20 µM
COC(=O)c1ccc2c(-c3cccc(C(N)=S)c3)c[nH]c2c1	20 to 100 µM
CC(O)c1ccc2c(-c3cccc(C(N)=S)c3)cn(CCC(F)F)c2c1 (stereo not given)	< 20 µM
NC(=S)c1cc(O)cc(-c2cccc3[nH]ccc23)c1	> 100 µM
CNc1ccc2c(-c3cccc(C(N)=S)c3)c[nH]c2c1	20 to 100 µM
NC(=S)c1cccc(-c2cn(C3CCOCC3)c3cc(-c4ccn[nH]4)ccc23)c1	< 20 µM
CS(=O)(=O)N1CCC(n2cc(-c3cccc(C(N)=S)c3)c3ccc(CNC(=O)Nc4cc[nH]n4)cc32)CC1	< 20 µM
NC(=S)c1cccc(-c2cn(CC(CF)CF)c3cc(NC(=O)c4ncc[nH]4)ccc23)c1	< 20 µM
CCCc1c[nH]c(CC(=O)NCc2ccc3c(-c4cccc(C(N)=S)c4)cn(C4CCN(S(C)(=O)=O)CC4)c3c2)c1	< 20 µM
NC(=S)c1cccc(-c2cn(CCC(F)F)c3cc(CNS(=O)(=O)C(F)(F)F)ccc23)c1	< 20 µM
NC(=S)c1cccc(-c2cn(C3CCCC3)c3cc(N)ccc23)c1	< 20 µM
NC(=S)c1cc(O)cc(-c2cn(CCCC(F)(F)F)c3cc(N)ccc23)c1	20 to 100 µM

SMILES	IC50
NC(=S)c1cccc(-c2ccc(CCC(F)F)c3[nH]ccc23)c1	< 20 µM
NC(=S)c1cccc(-c2cn(CC3(O)CCC3)c3cc(CO)ccc23)c1	< 20 µM
Cc1cc(O)ccc1-c1cccc(C(N)=S)c1	> 100 µM
Cc1cc(C)n2c1C=C1C=CC(CCCCC(=O)NCCOCCOc3ccc(-c4cccc(C(N)=S)c4)c4cc[nH]c34)=[N+]1[B-]2(F)F	> 100 µM
NC(=S)c1cccc(-c2cc(C(F)(F)F)cc3c2ccn3CC(F)(F)F)c1	20 to 100 µM
NC(=S)c1cccc(-c2ccc(O)c3c2CCC3)c1	> 100 µM
NC(=S)c1cccc(-c2c[nH]c3cc(C(N)=S)ccc23)c1	20 to 100 µM
Cc1cc(O)cc(C)c1-c1cccc(C(N)=S)c1	> 100 µM
NC(=S)c1cc(-c2cn(CCC(F)F)c3cc(CO)ccc23)c2scnc2c1	< 20 µM
Cc1cc(O)ccc1-c1cncc(C(N)=S)c1	> 100 µM
NC(=S)c1cccc(-c2cn(CC3CCCC3)c3cc(N)ccc23)c1	< 20 µM
COCc1cc2c(-c3cccc(C(N)=S)c3)cccc2n1C	20 to 100 µM
CCNc1c[nH]c(CC(=O)NCc2ccc3c(-c4cccc(C(N)=S)c4)cn(C4CCN(S(C)(=O)=O)CC4)c3c2)c1	< 20 µM
Cc1c(CO)ccc2c(-c3cccc(C(N)=S)c3)cn(CCCC(F)(F)F)c12	< 20 µM
Cc1cc2c(-c3cccc(C(N)=S)c3)ccc(O)c2[nH]1	20 to 100 µM
NC(=S)c1cccc(-c2cn(CO)c3ccccc23)c1	20 to 100 µM
NC(=S)c1cccc(-c2ccc(OCCOCCNC(=O)c3ccc(-c4c5ccc(=O)cc-5oc5cc(O)ccc45)c(C(=O)O)c3)c3[nH]ccc23)c1	> 100 µM
NC(=S)c1cc(-c2cn(CCC(F)F)c3cc(CO)ccc23)ccc1O	< 20 µM
Cc1cc2c(-c3cccc(C(N)=S)c3)cccc2[nH]1	> 100 µM
NC(=S)c1cccc(-c2cn(CC3CC(F)C(F)C3)c3cc(CO)ccc23)c1 (stereo not given)	< 20 µM
NC(=S)c1cccc(-c2cn(CCC(F)F)c3cc(CF)ccc23)c1	< 20 µM
NC(=S)c1cccc(-c2cc(CCC(F)F)c3cc[nH]c3c2)c1	< 20 µM
NCCOCCOc1ccc(-c2cccc(C(N)=S)c2)c2cc[nH]c12	20 to 100 µM
NC(=S)c1cccc(-c2cn(CC(CO)(C(F)F)C(F)F)c3cc(C(O)CC(F)F)ccc23)c1 (stereo not given)	< 20 µM

Source: ChEMBL document CHEMBL4482324, “Ash1l inhibitors and methods of treatment therewith” (2017)
